{"source": "patent US20240245800A1", "about": "“HIGHLY SPECIFIC RABBIT SINGLE -DOMAIN ANTIBODIES FOR DRUG DELIVERY IN IMMUNOTHERAPY APPLICATIONS” (TECHNOPHAGE, INVESTIGAÇÃO E DESENVOLVIMENTO EM …, priority 2021, published 2024)", "key": {"[1]": {"test_system": "LN229 cell line", "assay": "BEB-glioblastoma (BEB-GBM) in vitro model: LN229 viability", "assay_type": "cell-based", "design": "dose or concentration left out as unconfirmed", "conditions": "PAN free added to apex, 24 h", "description": "FIG. 18. Activity of liposomal drug delivery in the BEB-Glioblastoma model, wherein an in vitro BEB-GBM model was developed to mimic the complexity of drug delivery to a brain tumour. This model combined a monolayer of bEnd.3, as the BBB barrier, and the LN229 cell line at the base as the glioblastoma tumour.\nFIG. 18B. PAN encapsulated RG3 and FC5 functionalized liposomes were analysed in terms of BEB translocation and delivery of PAN to a glioblastoma cell line and compared with non-functionalized unloaded liposomes (Control). […] The cytotoxic effect of PAN in LN229 was determined by adding WST-1 reagent. The values were obtained from duplicates of two independent experiments ([…])."}, "[2]": {"test_system": "bEnd.3", "quoted_text": "The integrity of the bEnd.3 was measured by determining the translocation of the FD40 fluorescent probe while LN229 viability was determined using WST-1 reagent and OD450 nm measurement following 24 h incubation, and\nThe in vitro BEB models were optimized based on previous studies [45]. Briefly, bEnd.3 cells were cultured in DMEM, supplemented with 10% FBS and 1% penicillin/streptomycin (Lonza, Basel, Switzerland) antibiotic solution. Cells were cultured in a humidified atmosphere of 5% CO2 at 37° C. and the medium changed every other day. […] Samples were recovered from the apex and base and fluorescence intensity was measured in a microtiter plate reader (BMG Labtech, Fluostar OPTIMA, Ortenberg, Germany) with an excitation of 485 nm and a maximum emission at 520 nm.\nTo study the BEB translocation efficiency of the Lip-PAN-RG3 and Lip-PAN-FC5 liposomes and subsequent drug delivery and cytotoxic activity of PAN in a glioblastoma cell line, a dual in vitro non-contact co-culture model was established with bEnd.3 and LN229 cells. […] Following the 24 h treatment, WST-1 was added to the plate, and O.D.450 nm was measured following 24 h incubation. Each data point was determined using three replicate wells and two independent experiments were carried out in different days. […] In parallel, the integrity of the BEB model was measured as described previously."}}}
{"smiles": "Cc1[nH]c2ccccc2c1CCNCc1ccc(/C=C/C(=O)NO)cc1", "note": "[PAN, panobinostat]", "values": [{"measurement": "effect on LN229 viability in BEB-GBM model", "setting": "[1]", "value": "no significant effect"}, {"measurement": "effect on BEB integrity in BEB-GBM model", "setting": "[2]", "value": "no significant effect"}]}
